Columns and labels:
Format in all cases: in vivo
[1] = system: Italian ryegrass (Lolium multiflorum); test: Test A preemergence, directed soil spray; conditions: approx. 10 days
Outline: (§1)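 Greenhouse pot test in loam–sand blend. Preemergence treatment by directed soil spray at planting; postemergence spray on one- to two-leaf plants 2–10 cm high. Rated ~10 days later against untreated controls on a 0–100 scale, where 0 means no effect.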

[2] = system: barnyardgrass (Echinochloa crus-galli); test: Test A preemergence, directed soil spray; conditions: approx. 10 days
Outline: as §1

[3] = system: giant foxtail (Setaria faberii); test: Test A preemergence, directed soil spray; conditions: approx. 10 days
Outline: as §1

kochia (Kochia scoparia) [4] = test: Test A preemergence, directed soil spray; conditions: approx. 10 days
Outline: as §1

[5] = system: pigweed (Amaranthus retroflexus); test: Test A preemergence, directed soil spray; conditions: approx. 10 days
Outline: as §1

[6] = system: ragweed (common ragweed, Ambrosia elatior); test: Test A preemergence, directed soil spray; conditions: approx. 10 days
Outline: as §1

[7] = system: Italian ryegrass (Lolium multiflorum); test: Test A postemergence application; conditions: approx. 10 days
Outline: as §1

[8] = system: barnyardgrass (Echinochloa crus-galli); test: Test A postemergence application; conditions: approx. 10 days
Outline: as §1

[9] = system: blackgrass (Alopecurus myosuroides); test: Test A postemergence application; conditions: approx. 10 days
Outline: as §1

corn (Zea mays) = test: Test A postemergence application; conditions: approx. 10 days
Outline: as §1

[10] = system: galium (catchweed bedstraw, Galium aparine); test: Test A postemergence application; conditions: approx. 10 days
Outline: as §1

[11] = system: giant foxtail (Setaria faberii); test: Test A postemergence application; conditions: approx. 10 days
Outline: as §1

kochia (Kochia scoparia) [12] = test: Test A postemergence application; conditions: approx. 10 days
Outline: as §1

[13] = system: pigweed (Amaranthus retroflexus); test: Test A postemergence application; conditions: approx. 10 days
Outline: as §1

[14] = system: blackgrass (Alopecurus myosuroides); test: Test C postemergence; conditions: scale 0 to 100, 0 is no effect, 100 is complete control
Excerpt: (§2) Seeds of plant species selected from blackgrass (Alopecurus myosuroides), Italian ryegrass (Lolium multiflorum), winter wheat (Triticum aestivum), galium (catchweed bedstraw, Galium aparine), corn (Zea mays), large (Lg) crabgrass (Digitaria sanguinalis), giant foxtail (Setaria faberii), johnsongrass (Sorghum halepense), lambsquarters (Chenopodium album), morningglory (Ipomoea coccinea), yellow nutsedge (Cyperus esculentus), pigweed (Amaranthus retroflexus), ragweed (common ragweed, Ambrosia elatior), soybean (Glycine max), barnyardgrass (Echinochloa crus-galli), oilseed rape (Brassica napus), waterhemp (common waterhemp, Amaranthus rudis), and velvetleaf (Abutilon theophrasti) were planted into a blend of loam soil and sand and treated preemergence with test chemicals formulated in a non-phytotoxic solvent mixture which included a surfactant. At the same time, plants selected from these crop and weed species and also chickweed (common chickweed, Stellaria media), kochia (Kochia scoparia), and wild oat (Avena fatua), were planted in pots containing Sunshine Redi-Earth® planting medium comprising spaghnum peat moss, vermiculite, starter nutrients and dolomitic limestone and treated with postemergence applications of test chemicals formulated in the same manner. Plants ranged in height from 2 to 18 cm (1- to 4-leaf stage) for postemergence treatments. Treated plants and controls were maintained in a greenhouse for 13 to 15 days, after which time all species were compared to controls and visually evaluated. Plant response ratings, summarized in Table C, are based on a scale of 0 to 100 where 0 is no effect and 100 is complete control. A dash (-) response means no test result.

[15] = system: giant foxtail (Setaria faberii); test: Test C postemergence; conditions: scale 0 to 100, 0 is no effect, 100 is complete control
Excerpt: as §2

[16] = system: johnsongrass (Sorghum halepense); test: Test C postemergence; conditions: scale 0 to 100, 0 is no effect, 100 is complete control
Excerpt: as §2

[17] = system: lambsquarters (Chenopodium album); test: Test C postemergence; conditions: scale 0 to 100, 0 is no effect, 100 is complete control
Excerpt: as §2

[18] = system: large (Lg) crabgrass (Digitaria sanguinalis); test: Test C postemergence; conditions: scale 0 to 100, 0 is no effect, 100 is complete control
Excerpt: as §2

[19] = system: oilseed rape (Brassica napus); test: Test C postemergence; conditions: scale 0 to 100, 0 is no effect, 100 is complete control
Excerpt: as §2

[20] = system: ragweed (common ragweed, Ambrosia elatior); test: Test C postemergence; conditions: scale 0 to 100, 0 is no effect, 100 is complete control
Excerpt: as §2

[21] = system: waterhemp (common waterhemp, Amaranthus rudis); test: Test C postemergence; conditions: scale 0 to 100, 0 is no effect, 100 is complete control
Excerpt: as §2

[22] = system: winter wheat (Triticum aestivum); test: Test C postemergence; conditions: scale 0 to 100, 0 is no effect, 100 is complete control
Excerpt: as §2

O=c1cccc(Oc2ncc(Cl)cn2)n1-c1ccc(C(F)(F)F)cn1 [Compound 7]
85: Plant response rating, Waterhemp ([21]; 62 g ai/ha) | Plant response rating, Waterhemp ([21]; 125 g ai/ha)
60: Plant response rating (0 to 100 scale, 0 no effect, 100 complete control), Ryegrass, Italian ([1]; 125 g ai/ha) | Plant response rating (0 to 100 scale, 0 no effect, 100 complete control), Foxtail, Giant ([3]; 31 g ai/ha) | Plant response rating, Waterhemp ([21]; 16 g ai/ha)
5: Plant response rating, Blackgrass ([14]; 16 g ai/ha) | Plant response rating, Blackgrass ([14]; 31 g ai/ha) | Plant response rating, Johnsongrass ([16]; 16 g ai/ha) | Plant response rating, Johnsongrass ([16]; 31 g ai/ha)
75: Plant response rating, Lambsquarters ([17]; 125 g ai/ha)
0: Plant response rating (0 to 100 scale, 0 no effect, 100 complete control), Ryegrass, Italian ([7]; 31 g ai/ha) | Plant response rating, Wheat ([22]; 16 g ai/ha) | Plant response rating, Wheat ([22]; 31 g ai/ha) | Plant response rating, Wheat ([22]; 62 g ai/ha) | Plant response rating, Wheat ([22]; 125 g ai/ha)
70: Plant response rating (0 to 100 scale, 0 no effect, 100 complete control), Barnyardgrass ([2]; 125 g ai/ha) | Plant response rating (0 to 100 scale, 0 no effect, 100 complete control), Kochia (kochia (Kochia scoparia) [4]; 125 g ai/ha) | Plant response rating (0 to 100 scale, 0 no effect, 100 complete control), Ragweed ([6]; 125 g ai/ha) | Plant response rating (0 to 100 scale, 0 no effect, 100 complete control), Pigweed ([13]; 31 g ai/ha) | Plant response rating, Waterhemp ([21]; 31 g ai/ha)
65: Plant response rating, Lambsquarters ([17]; 31 g ai/ha) | Plant response rating, Lambsquarters ([17]; 62 g ai/ha)
90: Plant response rating (0 to 100 scale, 0 no effect, 100 complete control), Galium ([10]; 125 g ai/ha) | Plant response rating (0 to 100 scale, 0 no effect, 100 complete control), Kochia (kochia (Kochia scoparia) [12]; 125 g ai/ha) | Plant response rating (0 to 100 scale, 0 no effect, 100 complete control), Pigweed ([13]; 125 g ai/ha)
50: Plant response rating (0 to 100 scale, 0 no effect, 100 complete control), Barnyardgrass ([8]; 125 g ai/ha) | Plant response rating (0 to 100 scale, 0 no effect, 100 complete control), Galium ([10]; 31 g ai/ha) | Plant response rating (0 to 100 scale, 0 no effect, 100 complete control), Foxtail, Giant ([11]; 125 g ai/ha)
55: Plant response rating, Ragweed ([20]; 125 g ai/ha)
100: Plant response rating (0 to 100 scale, 0 no effect, 100 complete control), Foxtail, Giant ([3]; 125 g ai/ha) | Plant response rating (0 to 100 scale, 0 no effect, 100 complete control), Pigweed ([5]; 31 g ai/ha) | Plant response rating (0 to 100 scale, 0 no effect, 100 complete control), Pigweed ([5]; 125 g ai/ha)
15: Plant response rating, Foxtail, Giant ([15]; 62 g ai/ha) | Plant response rating, Crabgrass, Large ([18]; 62 g ai/ha) | Plant response rating, Crabgrass, Large ([18]; 125 g ai/ha)
10: Plant response rating (0 to 100 scale, 0 no effect, 100 complete control), Ryegrass, Italian ([1]; 31 g ai/ha) | Plant response rating (0 to 100 scale, 0 no effect, 100 complete control), Ragweed ([6]; 31 g ai/ha) | Plant response rating (0 to 100 scale, 0 no effect, 100 complete control), Blackgrass ([9]; 31 g ai/ha) | Plant response rating (0 to 100 scale, 0 no effect, 100 complete control), Corn (corn (Zea mays); 31 g ai/ha) | Plant response rating, Blackgrass ([14]; 62 g ai/ha) | Plant response rating, Foxtail, Giant ([15]; 16 g ai/ha) | Plant response rating, Foxtail, Giant ([15]; 31 g ai/ha) | Plant response rating, Johnsongrass ([16]; 62 g ai/ha) | Plant response rating, Johnsongrass ([16]; 125 g ai/ha) | Plant response rating, Crabgrass, Large ([18]; 16 g ai/ha) | Plant response rating, Crabgrass, Large ([18]; 31 g ai/ha)
30: Plant response rating (0 to 100 scale, 0 no effect, 100 complete control), Kochia (kochia (Kochia scoparia) [4]; 31 g ai/ha) | Plant response rating (0 to 100 scale, 0 no effect, 100 complete control), Blackgrass ([9]; 125 g ai/ha) | Plant response rating, Ragweed ([20]; 31 g ai/ha)
40: Plant response rating, Oilseed Rape ([19]; 62 g ai/ha)
25: Plant response rating, Lambsquarters ([17]; 16 g ai/ha) | Plant response rating, Ragweed ([20]; 16 g ai/ha)
80: Plant response rating (0 to 100 scale, 0 no effect, 100 complete control), Kochia (kochia (Kochia scoparia) [12]; 31 g ai/ha)
20: Plant response rating (0 to 100 scale, 0 no effect, 100 complete control), Barnyardgrass ([2]; 31 g ai/ha) | Plant response rating (0 to 100 scale, 0 no effect, 100 complete control), Ryegrass, Italian ([7]; 125 g ai/ha) | Plant response rating (0 to 100 scale, 0 no effect, 100 complete control), Barnyardgrass ([8]; 31 g ai/ha) | Plant response rating (0 to 100 scale, 0 no effect, 100 complete control), Corn (corn (Zea mays); 125 g ai/ha) | Plant response rating (0 to 100 scale, 0 no effect, 100 complete control), Foxtail, Giant ([11]; 31 g ai/ha) | Plant response rating, Blackgrass ([14]; 125 g ai/ha) | Plant response rating, Foxtail, Giant ([15]; 125 g ai/ha) | Plant response rating, Oilseed Rape ([19]; 16 g ai/ha)
35: Plant response rating, Oilseed Rape ([19]; 31 g ai/ha) | Plant response rating, Oilseed Rape ([19]; 125 g ai/ha) | Plant response rating, Ragweed ([20]; 62 g ai/ha)

— patent US9963442B2, “Pyridones as herbicides” (E I DU PONT DE NEMOURS AND COMPANY, priority 2014, dated 2018)
